According to patent US20260315653A1, “ANTICOAGULANT COMPOSITIONS COMPRISING ANTI-PLATELET AND ANTI-INFLAMMATORY DRUGS AND METHODS AND DEVICES FOR THEIR USE” (Elixir Medical Corporation, priority 2023, published 2026):
Entries after “also recorded” stand apart in the source; their conditions may differ.

How the values were obtained:
[1] = system: blood clotting (citrated sheep blood); experiment: Activated clotting time (ACT) in citrated sheep blood (Example 2); conditions: single drug, 0.6 ng/mg
Procedure: The activated clotting time (ACT) evaluation of anticoagulants was performed in calcium citrate sheep blood and recorded employing the Hemochron® Response device.
The ACT measurements were made in citrated sheep blood. 1.9 ml of citrated sheep blood was added to a test tube containing an activator (Hemochron@Celite@ ACT tubes, Lot F8FTE026 from Accriva Diagnostics, Inc.). A target amount of drug solution was then added into the test tube. The test tube was gently swirled so that the blood and drug was well-mixed. 0.1 ml of 0.3M calcium chloride was then added. The tube was gently shaken before being inserted into the Hemochron Response detector. The ACT read out was recorded and reported. The ACT of the control blood in the absence of any drug as first determined to establish a baseline. Then ACT was determined in the presence of different concentrations of the drug as a single component. Selected drug combinations were then tested to evaluate for potential synergy in action between the two drugs.

porcine coronary artery = experiment: In vivo porcine coronary stent implantation: fibrin score and late lumen loss (Examples 25-26); conditions: for inhibition of fibrin formation compared to control: Table 10, 7 days and 28 days
Procedure: The drug eluting stent systems containing different anticoagulants prepared as described in Example 11 were evaluated at 3 hours, 6 hours, 1 day, 3 days, 6 days, 7 days, or 28 days following implantation in a porcine coronary artery model.
The porcine model was chosen as this model has been used extensively for stent and angioplasty studies resulting in a large volume of data on the vascular response properties and its correlation to human vascular response (Schwartz et al, Circulation. 2002; 106:1867 1873). The animals were housed and cared for in accordance with the Guide for the Care and Use of Laboratory Animals as established by the National Research Council.
After induction of anesthesia, the left or right femoral artery was accessed using standard techniques and an arterial sheath was introduced and advanced into the artery. Vessel angiography was performed under fluoroscopic guidance, a 7 Fr. guide catheter was inserted through the sheath and advanced to the appropriate location where intracoronary nitroglycerin was administered. An appropriate implantation segment of coronary artery was randomly selected and a 0.014″ guidewire inserted. Quantitative Coronary Angiography (QCA) was performed to document the results. The appropriately size stent was advanced to the deployment site. The balloon was inflated at a steady rate to a pressure sufficient to achieve a balloon to artery ratio of approximately 1.1 to 1.0.
Follow up angiography was performed at the designated timepoint for each of the animals. Late lumen loss (LLL) can be expressed as: […]
The LLL is an indicator of the amount smooth muscle cell (SMC) proliferation or inhibition. It is used to measure efficacy between drugs for SMC proliferation inhibition. The smaller the LLL, the better the efficacy of the drug.
Stented portions of coronary arteries were embedded in methyl methacrylate (MMA), then divided into a target of at least three blocks of approximately similar lengths for histology evaluation. Quantitative histopathological evaluation of stented artery sections was then performed and scored as indicated. For Fibrin formation, scores ranged from 0 to 3, with a score of 0 indicating absent or rare minimal spotting around struts of the stent, a score of 1 indicating the presence of fibrin in small amounts localized only around the struts, a score of 2 indicating the moderately abundant or denser presence of fibrin around and extending beyond the struts, and a score of 3 indicating the presence of abundant and dense fibrin and/or bridging of the fibrin between the struts. The mean score was calculated and reported. The mean of each section was then averaged to provide a mean fibrin score per stent. The smaller the fibrin score, the better efficacy.

[2] = system: platelets (Tissue factor generated antiplatelet); conditions: cited from earlier work
[3] = system: blood clotting (citrated sheep blood); experiment: Net activated clotting time (net ACT) in citrated sheep blood (Examples 3-5); set-up: key: seconds; measured ACT minus blood control ACT (165 s); conditions: single drug, blood control 165 seconds
Procedure: The activated clotting time (ACT) evaluation of anticoagulants was performed in calcium citrate sheep blood and recorded employing the Hemochron® Response device. The ACT measurements were made in citrated sheep blood. 1.9 ml of citrated sheep blood was added to a test tube containing an activator (Hemochron@Celite@ ACT tubes, Lot F8FTE026 from Accriva Diagnostics, Inc.). A target amount of drug solution was then added into the test tube. The test tube was gently swirled so that the blood and drug were well-mixed. 0.1 ml of 0.3M calcium chloride was then added. The tube was gently shaken before being inserted into the Hemochron Response detector. The ACT read out was recorded and reported. The ACT of the control blood in the absence of any drug as first determined to establish a baseline. Here the blood control measured is 165 seconds. Then ACT was determined in the presence of different concentrations of the drug as a single component. In the following study, the net ACT (measured ACT minus blood control ACT) was utilized to visualize the synergistic effect of direct factor Xa inhibitor (Rivaroxaban) and direct factor IIa inhibitor (Argatroban) drug combinations. The figures are presented in ng/mg wherein the density of blood and tissue are approximately the same.
Example 4 is the continuation of example 3, which employed the same method as in example 3. The only difference is that the direct factor Xa inhibitor Edoxaban is used in place of direct factor Xa inhibitor Rivaroxaban.
Example 5 is the continuation of example 3, which employed the same method as in example 3. The only difference is that the direct factor Xa inhibitor Betrixaban is used in place of direct factor Xa inhibitor Rivaroxaban.

[4] = In vivo drug release from / drug remaining on implanted stents (HPLC); set-up: species or system porcine; conditions: 7 days, n = 5
Procedure: The percentage and/or amount of each anticoagulant drug for or by each time point indicated were analyzed for each stent from the different devices in the example and the average drug tissue concentration reported.
Tissue concentrations and the amount of drug released from the stents were measured using stents implanted in porcine arteries for the drugs as indicated. The arteries at the designated time point were excised and a length of stented artery spanning from 5 mm proximal to the stented segment to 5 mm distal to the stented segment was cut. The stented artery was cut longitudinally with surgical scissors. The stents were separated from the tissue. The tissue content of each drug was analyzed using liquid chromatography mass spectroscopy (LCMS) and reported as a mean for each of the timepoint indicated. For drug remaining on each stent, each drug was extracted from the stent, measured using HPLC, and reported as a mean for each of the timepoint indicated as drug released or drug remaining on a stent (where drug remaining is equal to 100% minus the percentage of drug released).

[5] = system: blood clotting (heparinized sheep blood); experiment: Net ACT initiated by platelet activation factor (PAF) and CaCl2 in heparinized sheep blood (Examples 6-11); conditions: single drug, 0.05 ng/mg; PAF & CaCl2; blood control 235 seconds
Procedure: In order to examine the potential synergistic effects between anti-inflammatory agents, direct factor Xa inhibitors, direct factor IIa inhibitors, antiplatelets (P2Y12 inhibitor and glycoprotein IIb/IIIa inhibitor, platelet activation factor and CaCl2 were utilized by measuring ACT. Heparinized sheep blood was used to preserve platelet function.
The activated clotting time (ACT) evaluation initiated by platelet activation factor (PAF) and calcium chloride (CaCl2) was performed in heparinized sheep blood and recorded employing the Hemochron® Response device. […] A target amount of drug solution was then added into the test tube. The test tube was gently swirled so that the blood and drug were well-mixed. […] The tube was gently shaken before being inserted into the Hemochron Response detector. The ACT read out was recorded and reported. The ACT of the control heparinized sheep blood in the absence of any drug as first measured to establish a baseline. […] Then ACT was measured in the presence of different concentrations of the drug measured. Selected drug combinations were then tested to evaluate for potential synergy in action between the drug combination. The net ACT (ACT minus blood control ACT) was utilized to visualize the synergistic effect. […] The figures are presented in ng/mg wherein the density of blood and tissue are approximately the same.

| Structure (SMILES) | ACT [1] | inhibition of fibrin formation compared to bare metal control stents (porcine coronary artery; Table 9, day 7) | inhibition of fibrin formation compared to control (porcine coronary artery) | inhibition of fibrin formation compared to control (porcine coronary artery; listed as Rivamomaban) | IC50 [2] [µM] | IC50 for Tissue factor generated antiplatelet [2] [ng/mg] | net ACT ([3]; 0.15 ng/mg) | net ACT ([3]; 0.3 ng/mg) | Cumulative Percent Release of drug: Rivaroxaban [4] | Cumulative Percent Release of drug: Rivaroxaban ([4]; listed as Rivamomaban) | net ACT [5] [s] |
| --- | --- | --- | --- | --- | --- | --- | --- | --- | --- | --- | --- |
| COc1ccc(-n2nc(C(N)=O)c3c2C(=O)N(c2ccc(N4CCCCC4=O)cc2)CC3)cc1 [Apixaban] | 522 | – | – | – | – | – | – | – | – | – | – |
| O=C(NC[C@H]1CN(c2ccc(N3CCOCC3=O)cc2)C(=O)O1)c1ccc(Cl)s1 [Rivaroxaban] | – | effective at inhibiting fibrin formation | effective at inhibiting fibrin formation compared to control at 7 days and at 28 days when it was released at a faster rate and/or at a larger dose; also recorded: not effective at inhibiting fibrin formation compared to control at 28 days when it was released at a slower rate and/or at a smaller dose; also recorded: more effective at inhibiting fibrin formation compared to control at 7 days and at 28 days; also recorded: not effective at inhibiting fibrin formation compared to control at 28 days | more effective at inhibiting fibrin formation compared to control at 7 days and at 28 days | 0.312 | 0.136 | 114 | 139 | at least 88.9% | at least 99.7% | 166 |
